Laboratory results as given in patent US7700646B2, “Compounds for use in the treatment of infection” (The University of London, School of Pharmacy, priority 2004, dated 2010).
“And” between values parts separate entries of the source, which are not always exact repeats. Identical values can stand only once.

Legend:
EMRSA-15 [1] = assay: MIC of compound alone, broth dilution; type: cell-based, Staphylococcus aureus; conditions: MHB + 2% NaCl, 35° C., 24 h
Experimental: (§1) Bacterial strains: S. aureus BB568 (COL-type strain that carries mecA and pT181) was provided by Professor B. Berger-Bächi. EMRSA-15 and EMRSA-16 were clinical isolates from the Royal Free Hospital, London.
(§2) Antibacterial susceptibility testing: Minimum Inhibitory Concentration (MIC) was determined by both broth and agar dilution techniques. Broth MIC testing was performed in 96-well microtitre trays with an inoculum of about 10^4 cfu in 100 μL of Mueller-Hinton broth (MHB) (Oxoid, Basingstoke, United Kingdom) supplemented with 2% NaCl. MIC determinations by agar dilution were carried out using Mueller-Hinton agar (Oxoid) with an inoculum of about 10^4 organisms per spot. For both methods, MIC values were obtained after incubation at 35° C. for 24 h. S. aureus ATCC29213 was used as the standard.

S. aureus BB568 [2] = assay: MIC of compound alone, broth dilution; type: cell-based, Staphylococcus aureus; conditions: 35° C., 24 h
Experimental: as §1, §2

EMRSA-16 [3] = assay: MIC of compound alone, broth dilution; type: cell-based, Staphylococcus aureus; conditions: MHB + 2% NaCl, 35° C., 24 h
Experimental: as §1, §2

EMRSA-15 [4] = assay: MIC of oxacillin in absence or presence of fixed concentration of compound; type: cell-based, Staphylococcus aureus
Experimental: as §1, §2
(§3) With the amide derivatives (21 and 24) in hand, their efficacy as modulators for β-lactam resistance in S. aureus was evaluated by determining their capcity to reduce the minimum inhibitory concentration (MIC) of oxacillin against MRSA strains BB 568, EMRSA-15 and EMRSA-16 as described in example 2.
(§4) With the B-ring modified analogues 47 and 48 in hand, their efficacy as modulators for β-lactam resistance in S. aureus was evaluated by determining their capacity to reduce the minimum inhibitory concentration (MIC) of oxacillin against MRSA strains BB 568, EMSRA-15 and EMSRA-16 (Table 5)

S. aureus BB568 [5] = assay: as above; type: cell-based, Staphylococcus aureus; conditions: BB 568
Experimental: as §1, §2, §3, §4

EMRSA-16 [6] = assay: as above; type: cell-based, Staphylococcus aureus
Experimental: as §1, §2, §3, §4

[7] = system: MRSA strains BB 568, EMRSA-15 and EMRSA-16; assay: Intrinsic antibacterial activity, summary over three strains; type: cell-based, Staphylococcus aureus; conditions: compound alone, in words
Experimental: as §1, §2
(§5) Sub-inhibitory concentrations (6.25, 12.5 and 25 mg/L) of both compounds were effective in reducing the MIC of all three strains examined.

[8] = system: MRSA strains BB 568, EMRSA-15 and EMRSA-16; assay: Modulation of oxacillin resistance, summary over three strains; type: cell-based, Staphylococcus aureus; conditions: for potency as oxacillin sensitiser compared with ECg: 6.25 mg/L of catechin gallate
Experimental: as §1, §2, §5
At a concentration of 25 mg/L, ECg and the two analogues (47 and 48) fully sensitised each of the three MRSA strains to oxacillin, reducing the MICs to less than 0.5 mg/L, a figure well below the clinically-relevant breakpoint for β-lactam antbiotics.

porcine liver esterase = assay: Esterase sensitivity; type: in vitro ADME; conditions: porcine liver esterase (Sigma), 10 min at 37° C.
Experimental: The product of example 1 was tested for in esterase sensitivity as compared to ECG using commercially available porcine liver esterase (Sigma).

40 MRSA strains = conditions: all 40 MRSA strains; cited from earlier work
EMRSA-16 cells = assay: Binding of catechins to staphylococcal cells (HPLC of unbound catechin); design: species or system Staphylococcus aureus; conditions: compound added alone
Source text: The method is based on Hashimoto, T. et al 1999.

MRSA strain BB568 = conditions: cited from earlier work; for MIC of oxacillin in combination with compound: fixed sub-inhibitory concentration of compound
[9] = Staphylococcus aureus, read-out: MIC
[10] = Staphylococcus aureus, BB568, BB 568, MHB + 2% NaCl, read-out: MIC
[11] = in presence of 25 mg/L compound
[12] = in presence of 6.25 mg/L compound
[13] = in presence of 12.5 mg/L compound
[14] = in presence of 12.5 mg/L compound, listed as ECG
[15] = Staphylococcus aureus, absence of compound, 35° C., 24 h

Structure (SMILES): O=C(N[C@H]1Cc2c(O)cc(O)cc2O[C@@H]1c1ccc(O)c(O)c1)c1cc(O)c(O)c(O)c1 [Compound 24]
- MIC (EMRSA-15 [1]; [9]): 256 µg/mL
- MIC (S. aureus BB568 [2]; [10]): 256 µg/mL
- MIC (EMRSA-16 [3]; [9]): 128 µg/mL
- Oxacillin MIC (EMRSA-15 [4]; [11]): significant degree of sensitisation and 2/4
- Oxacillin MIC (S. aureus BB568 [5]; [11]): 64/64
- Oxacillin MIC (EMRSA-16 [6]; [11]): 256/512
- intrinsic antibacterial activity [7]: extremely weak intrinsic antibacterial activity

Structure (SMILES): O=C(O[C@@H]1Cc2c(O)cc(O)cc2O[C@@H]1c1cccc(O)c1)c1cc(O)c(O)c(O)c1 [Compound 47, (−)-3-hydroxy B ring modified (−)-ECg]
- MIC (EMRSA-15 [1]): >128 µg/mL
- MIC (S. aureus BB568 [2]; BB 568, MHB + 2% NaCl): >128 µg/mL
- MIC (EMRSA-16 [3]): 128 µg/mL
- potency as oxacillin sensitiser compared with ECg [8]: less potent than the natural compound
- Oxacillin MIC (EMRSA-15 [4]; [12]): 2 mg/L
- Oxacillin MIC (EMRSA-15 [4]; [13]): ≦0.5 mg/L
- Oxacillin MIC (EMRSA-15 [4]; [11]): ≦0.5 mg/L
- Oxacillin MIC (S. aureus BB568 [5]; [12]): 16 mg/L
- Oxacillin MIC (S. aureus BB568 [5]; [13]): 2 mg/L
- Oxacillin MIC (S. aureus BB568 [5]; [11]): ≦0.5 mg/L
- Oxacillin MIC (EMRSA-16 [6]; [12]): 32 mg/L
- Oxacillin MIC (EMRSA-16 [6]; [13]): 1 mg/L
- Oxacillin MIC (EMRSA-16 [6]; [11]): ≦0.5 mg/L
- intrinsic antibacterial activity [7]: little or no intrinsic antibacterial activity

Structure (SMILES): O=C(O[C@@H]1Cc2c(O)cc(O)cc2O[C@@H]1c1cc(O)cc(O)c1)c1cc(O)c(O)c(O)c1 [Compound 48, (−)-3,5-dihydroxy B ring modified (−)-ECg]
- MIC (EMRSA-15 [1]): 64 µg/mL
- MIC (S. aureus BB568 [2]; BB 568, MHB + 2% NaCl): 128 µg/mL
- MIC (EMRSA-16 [3]): 32 µg/mL
- potency as oxacillin sensitiser compared with ECg [8]: less potent than the natural compound
- Oxacillin MIC (EMRSA-15 [4]; [12]): 2 mg/L
- Oxacillin MIC (EMRSA-15 [4]; [13]): ≦0.5 mg/L
- Oxacillin MIC (EMRSA-15 [4]; [11]): ≦0.5 mg/L
- Oxacillin MIC (S. aureus BB568 [5]; [12]): 16 mg/L
- Oxacillin MIC (S. aureus BB568 [5]; [13]): 1 mg/L
- Oxacillin MIC (S. aureus BB568 [5]; [11]): ≦0.5 mg/L
- Oxacillin MIC (EMRSA-16 [6]; [12]): 64 mg/L
- Oxacillin MIC (EMRSA-16 [6]; [13]): ≦0.5 mg/L
- Oxacillin MIC (EMRSA-16 [6]; [11]): ≦0.5 mg/L
- intrinsic antibacterial activity [7]: weak to moderate anti-staphylococcal activity

Structure (SMILES): O=C(O[C@@H]1Cc2c(O)cc(O)cc2O[C@@H]1c1ccc(O)c(O)c1)c1cc(O)c(O)c(O)c1 [ECg, (−)-epicatechin gallate, reference compound]
- Oxacillin MIC (EMRSA-15 [4]; [12]): ≦0.5 mg/L
- Oxacillin MIC (EMRSA-15 [4]; [13]): ≦0.5 mg/L
- Oxacillin MIC (EMRSA-15 [4]; [11]): ≦0.5 mg/L
- Oxacillin MIC (S. aureus BB568 [5]; [12]): 1 mg/L
- Oxacillin MIC (S. aureus BB568 [5]; [13]): ≦0.5 mg/L
- Oxacillin MIC (S. aureus BB568 [5]; [14]): 1 mg/L
- Oxacillin MIC (S. aureus BB568 [5]; [11]): ≦0.5 mg/L
- Oxacillin MIC (EMRSA-16 [6]; [12]): ≦0.5 mg/L
- Oxacillin MIC (EMRSA-16 [6]; [13]): ≦0.5 mg/L
- Oxacillin MIC (EMRSA-16 [6]; [14]): 1 mg/L
- Oxacillin MIC (EMRSA-16 [6]; [11]): ≦0.5 mg/L
- hydrolysis by esterase (porcine liver esterase): totally hydrolysed
- reduction of β-lactam MIC (40 MRSA strains): reduced the MIC values to the susceptibility breakpoint or below
- Binding (%) (EMRSA-16 cells): 22%
- MIC of oxacillin in combination with compound (MRSA strain BB568): 1 mg/L

Structure (SMILES): Oc1cc(O)c2c(c1)O[C@H](c1cc(O)c(O)c(O)c1)[C@H](O)C2 [EGC, epigallocatechin]
- MIC of oxacillin in combination with compound (MRSA strain BB568): inactive

Structure (SMILES): O=C(O[C@@H]1Cc2c(O)cc(O)cc2O[C@@H]1c1cc(O)c(O)c(O)c1)c1cc(O)c(O)c(O)c1 [EGCg, epigallocatechin gallate]
- Binding (%) (EMRSA-16 cells): 16.2%
- MIC of oxacillin in combination with compound (MRSA strain BB568): 8 mg/L

Structure (SMILES): O=C(N[C@@H]1Cc2c(O)cc(O)cc2O[C@@H]1c1ccc(O)c(O)c1)c1cc(O)c(O)c(O)c1 [Ex 1]
- MIC (EMRSA-15 [1]): 128/256
- MIC (EMRSA-15 [1]; [9]): 256 µg/mL
- MIC (S. aureus BB568 [2]; BB 568, MHB + 2% NaCl): 128/256
- MIC (S. aureus BB568 [2]; [10]): 256 µg/mL
- MIC (EMRSA-16 [3]): 128/128
- MIC (EMRSA-16 [3]; [9]): 128 µg/mL
- Oxacillin MIC, each of the three MRSA strains [8, 11]: able to reduce the resistance to oxacillin of all three strains
- Oxacillin MIC (EMRSA-15 [4]; [13]): 1/1
- Oxacillin MIC (S. aureus BB568 [5]; [13]): 32/64
- Oxacillin MIC (S. aureus BB568 [5]; [11]): 4/8
- Oxacillin MIC (EMRSA-16 [6]; [13]): 32/64
- Oxacillin MIC (EMRSA-16 [6]; [11]): 1/1
- hydrolysis by esterase (porcine liver esterase): not affected
- intrinsic antibacterial activity [7]: extremely weak intrinsic antibacterial activity

Structure (SMILES): Cc1onc(-c2ccccc2)c1C(=O)N[C@@H]1C(=O)N2[C@@H]1SC(C)(C)[C@@H]2C(=O)O [Oxacillin, oxacillin, reference compound]
- MIC (EMRSA-15 [4]; [15]): 32 µg/mL
- Oxacillin MIC (S. aureus BB568 [5]; absence of compound, 35° C., 24 h, listed as Oxacillian): 256 mg/L
- MIC (S. aureus BB568 [5]; Staphylococcus aureus, BB568, absence of compound, 35° C., 24 h): 256 µg/mL
- MIC (EMRSA-16 [6]; [15]): 512 µg/mL
- MIC for oxacillin (MRSA strain BB568; oxacillin alone): 256 mg/L
